From patent US11807693B2 (priority 2014, dated 2023)
Starred links: 1 amine or outer side, 2 acyl side, 3 side chain; linkers in the order of their positions; H or OH if unused. Non-standard residues stand in square brackets, D forms with d. Residues, ends and D or L forms follow the SMILES beside them. *: point of attachment. dBip = N[C@H](Cc1ccc(-c2ccccc2)cc1)C(=O)O; Oic = O=C(O)[C@@H]1C[C@@H]2CCCC[C@@H]2N1; Phe(4-Cl) = N[C@@H](Cc1ccc(Cl)cc1)C(=O)O; Phe(4-I) = N[C@@H](Cc1ccc(I)cc1)C(=O)O; γGlu = O=C(O)[C@H](CCC(=O)[*:2])N[*:1]; NMehArg = CN[C@@H](CCCCNC(=N)N)C(=O)O; d(β3hF) = N[C@@H](CC(=O)O)Cc1ccccc1; NMeR = CN[C@@H](CCCNC(=N)N)C(=O)O; Palmitoyl = CCCCCCCCCCCCCCCC(=O)*; Tridecanoyl = CCCCCCCCCCCCC(=O)*; X1 = O=C(CN(C1CCNCC1)[*:1])[*:2]; hArg = N=C(N)NCCCC[C@H](N)C(=O)O; Cha = N[C@@H](CC1CCCCC1)C(=O)O; NMeL = CN[C@@H](CC(C)C)C(=O)O; Tle = CC(C)(C)[C@H](N)C(=O)O; β3hP = O=C(O)C[C@@H]1CCCN1; Nle = CCCC[C@H](N)C(=O)O; Pra = C#CC[C@H](N)C(=O)O; Deg = CCC(N)(CC)C(=O)O; AEEA = NCCOCCOCC(=O)O; Aib = CC(C)(N)C(=O)O

Target: T1, rat APJ receptor (Rattus norvegicus, UniProt Q9JHG3)
T1 construct: expressed in transfected cells
T1 sequence (Q9JHG3 1-377): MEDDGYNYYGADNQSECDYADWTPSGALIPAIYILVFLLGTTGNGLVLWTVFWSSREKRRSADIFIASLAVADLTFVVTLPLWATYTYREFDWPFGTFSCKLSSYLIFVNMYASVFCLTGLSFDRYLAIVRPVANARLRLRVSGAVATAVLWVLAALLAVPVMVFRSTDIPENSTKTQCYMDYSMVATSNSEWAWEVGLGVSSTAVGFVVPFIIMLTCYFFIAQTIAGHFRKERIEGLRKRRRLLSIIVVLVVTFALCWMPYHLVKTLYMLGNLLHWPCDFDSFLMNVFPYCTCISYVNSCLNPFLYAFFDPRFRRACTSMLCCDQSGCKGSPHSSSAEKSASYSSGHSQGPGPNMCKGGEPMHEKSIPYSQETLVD
Assay: [35S] GTPγS assay, rat APJ receptor
Type: biochemical
Conditions: Table 16, read-out: EC50 Rat APJ Receptor
Method: The membranes were incubated with modified peptides in the assay buffer. […] Bound [^35S] GTPγS was separated from free radiolabel by filtration. The filter bound radioactivity was determined by liquid scintillation counting.

EC50 [nM]	SMILES
3.21	CCCCCCCCCCCCC(=O)N[C@@H](CCC(=O)NCCOCCOCC(=O)NCCOCCOCC(=O)N[C@@H](CCC(N)=O)C(=O)N[C@@H](CCCNC(=N)N)C(=O)N1CCC[C@H]1C(=O)N(C)[C@@H](CCCNC(=N)N)C(=O)N[C@H](C(=O)N[C@@H](CO)C(=O)N[C@@H](Cc1c[nH]cn1)C(=O)N[C@@H](CCCCN)C(=O)NCC(=O)N1[C@H](C(=O)N[C@@H](CCCC)C(=O)N2CCC[C@H]2C(=O)N[C@@H](Cc2ccc(Cl)cc2)C(=O)O)C[C@@H]2CCCC[C@@H]21)C(C)(C)C)C(=O)O [compound 439] ({Tridecanoyl-γGlu-AEEA-AEEA}-QRP[NMeR][Tle]SHKG[Oic][Nle]P[Phe(4-Cl)]-OH)
1.15	CCCCCCCCCCCCC(=O)N[C@@H](CCC(=O)NCCOCCOCC(=O)NCCOCCOCC(=O)N[C@@H](CCC(N)=O)C(=O)N[C@H](CCCNC(=N)N)C(=O)N1CCC[C@H]1C(=O)N(C)[C@@H](CCCCNC(=N)N)C(=O)N[C@@H](CC1CCCCC1)C(=O)N[C@@H](CO)C(=O)N[C@@H](Cc1c[nH]cn1)C(=O)N[C@@H](CCCCN)C(=O)NCC(=O)N1CCC[C@H]1C(=O)N[C@@H](CCCC)C(=O)N1CCC[C@H]1C(=O)N[C@@H](Cc1ccc(Cl)cc1)C(=O)O)C(=O)O [compound 435] ({Tridecanoyl-γGlu-AEEA-AEEA}-Q[dR]P[NMehArg][Cha]SHKGP[Nle]P[Phe(4-Cl)]-OH)
0.313	C#CC[C@H](NC(=O)[C@H](CC(C)C)NC(=O)[C@H](CCCNC(=N)N)N(C)C(=O)[C@@H]1CCCN1C(=O)[C@H](CCCNC(=N)N)NC(=O)[C@H](CCC(N)=O)NC(=O)COCCOCCNC(=O)COCCOCCNC(=O)CC[C@H](NC(=O)CCCCCCCCCCCC)C(=O)O)C(=O)N[C@@H](Cc1c[nH]cn1)C(=O)N[C@@H](CCCCN)C(=O)NCC(=O)N1CCC[C@H]1C(=O)N[C@@H](CCCC)C(=O)N1CCC[C@H]1C(=O)N[C@@H](Cc1ccc(Cl)cc1)C(=O)O [compound 450] ({Tridecanoyl-γGlu-AEEA-AEEA}-QRP[NMeR]L[Pra]HKGP[Nle]P[Phe(4-Cl)]-OH)
3.79	CCCCCCCCCCCCC(=O)N[C@@H](CCC(=O)NCCOCCOCC(=O)NCCOCCOCC(=O)N[C@@H](CCC(N)=O)C(=O)N[C@@H](CCCNC(=N)N)C(=O)N1CCC[C@H]1C(=O)N(C)[C@@H](CCCNC(=N)N)C(=O)N[C@@H](CC1CCCCC1)C(=O)N[C@@H](CO)C(=O)N[C@@H](Cc1c[nH]cn1)C(=O)N[C@@H](CCCCN)C(=O)NCC(=O)NC(C)(C)C(=O)N[C@@H](CCCC)C(=O)N1CCC[C@H]1C(=O)N[C@@H](Cc1ccc(Cl)cc1)C(=O)O)C(=O)O [compound 414] ({Tridecanoyl-γGlu-AEEA-AEEA}-QRP[NMeR][Cha]SHKG[Aib][Nle]P[Phe(4-Cl)]-OH)
0.23	CCCCCCCCCCCCC(=O)N[C@@H](CCC(=O)NCCOCCOCC(=O)NCCOCCOCC(=O)N[C@@H](CCC(N)=O)C(=O)N[C@@H](CCCNC(=N)N)C(=O)N1CCC[C@H]1C(=O)N(C)[C@@H](CCCNC(=N)N)C(=O)N(C)[C@@H](CC(C)C)C(=O)N[C@@H](CO)C(=O)N[C@@H](Cc1c[nH]cn1)C(=O)N[C@@H](CCCCN)C(=O)NCC(=O)N1CCC[C@H]1C(=O)N[C@@H](CCCC)C(=O)N1CCC[C@H]1C(=O)N[C@@H](Cc1ccc(Cl)cc1)C(=O)O)C(=O)O [compound 459]
8.1	CCCCCCCCCCCCC(=O)N[C@@H](CCC(=O)NCCOCCOCC(=O)NCCOCCOCC(=O)N[C@@H](CCC(N)=O)C(=O)N[C@@H](CCCNC(=N)N)C(=O)N1CCC[C@H]1C(=O)N(C)[C@@H](CCCNC(=N)N)C(=O)N[C@@H](CC1CCCCC1)C(=O)N[C@@H](CO)C(=O)N[C@@H](Cc1c[nH]cn1)C(=O)N[C@@H](CCCCN)C(=O)NCC(=O)N1CCC[C@H]1CC(=O)N[C@@H](CCCC)C(=O)N1CCC[C@H]1C(=O)N[C@@H](Cc1ccc(Cl)cc1)C(=O)O)C(=O)O [compound 417] ({Tridecanoyl-γGlu-AEEA-AEEA}-QRP[NMeR][Cha]SHKG[β3hP][Nle]P[Phe(4-Cl)]-OH)

Same assay, conditions: rat APJ receptor, read-out: EC50 Rat APJ Receptor

EC50 [nM]	SMILES
> 4170	CCCCCCCCCCCCCCCC(=O)N[C@@H](CCC(=O)NCCOCCOCC(=O)NCCOCCOCC(=O)N[C@H](CCC(N)=O)C(=O)N[C@@H](CCCNC(=N)N)C(=O)N1CCC[C@H]1C(=O)N(C)[C@@H](CCCNC(=N)N)C(=O)N[C@@H](CC1CCCCC1)C(=O)N[C@@H](CO)C(=O)N[C@@H](Cc1c[nH]cn1)C(=O)N(CC(=O)NCC(=O)N1[C@H](C(=O)N[C@@H](CCCC)C(=O)N2CCC[C@H]2CC(=O)N[C@@H](CC(=O)O)Cc2ccccc2)C[C@@H]2CCCC[C@@H]21)C1CCNCC1)C(=O)O [compound 633] ({Palmitoyl-γGlu-AEEA-AEEA}-[dQ]RP[NMeR][Cha]SH[X1]G[Oic][Nle][β3hP][d(β3hF)]-OH)
12.5	CCCCCCCCCCCCC(=O)N[C@@H](CCC(=O)NCCOCCOCC(=O)NCCOCCOCC(=O)NC(CC)(CC)C(=O)N[C@@H](CCCCNC(=N)N)C(=O)N1CCC[C@H]1C(=O)N[C@H](CCCNC(=N)N)C(=O)N[C@@H](CC1CCCCC1)C(=O)N[C@@H](CO)C(=O)N[C@@H](Cc1c[nH]cn1)C(=O)N[C@@H](CCCCN)C(=O)NCC(=O)N1[C@H](C(=O)N[C@@H](CCCC)C(=O)N2CCC[C@H]2C(=O)N[C@@H](Cc2ccc(Cl)cc2)C(=O)O)C[C@@H]2CCCC[C@@H]21)C(=O)O [compound 558] ({Tridecanoyl-γGlu-AEEA-AEEA}-[Deg][hArg]P[dR][Cha]SHKG[Oic][Nle]P[Phe(4-Cl)]-OH)
46	CCCCCCCCCCCCC(=O)N[C@@H](CCC(=O)NCCOCCOCC(=O)NCCOCCOCC(=O)N[C@@H](CCCCNC(=N)N)C(=O)N[C@H](CCCNC(=N)N)C(=O)N[C@@H](CCC(N)=O)C(=O)N[C@@H](CCCCNC(=N)N)C(=O)N1CCC[C@H]1C(=O)N[C@H](CCCNC(=N)N)C(=O)N(C)[C@@H](CC(C)C)C(=O)N[C@@H](C)C(=O)N[C@@H](Cc1c[nH]cn1)C(=O)N[C@@H](CCCC)C(=O)NCC(=O)N1[C@H](C(=O)N[C@@H](Cc2ccc(I)cc2)C(=O)N2CCC[C@H]2C(=O)N[C@H](Cc2ccc(-c3ccccc3)cc2)C(=O)O)C[C@@H]2CCCC[C@@H]21)C(=O)O [compound 318] ({Tridecanoyl-γGlu-AEEA-AEEA}-[hArg][dR]Q[hArg]P[dR][NMeL]AH[Nle]G[Oic][Phe(4-I)]P[dBip]-OH)
14.8	CCCCCCCCCCCCC(=O)N[C@@H](CCC(=O)NCCOCCOCC(=O)NCCOCCOCC(=O)N[C@@H](CCCCNC(=N)N)C(=O)N[C@@H](CCCC)C(=O)N[C@@H](CCC(N)=O)C(=O)N[C@@H](CCCCNC(=N)N)C(=O)N1CCC[C@H]1C(=O)N[C@H](CCCNC(=N)N)C(=O)N(C)[C@@H](CC(C)C)C(=O)N[C@@H](CO)C(=O)N[C@@H](C)C(=O)N[C@@H](CCCCN)C(=O)NCC(=O)N1[C@H](C(=O)N[C@@H](Cc2ccc(I)cc2)C(=O)N2CCC[C@H]2C(=O)N[C@H](Cc2ccc(-c3ccccc3)cc2)C(=O)O)C[C@@H]2CCCC[C@@H]21)C(=O)O [compound 327] ({Tridecanoyl-γGlu-AEEA-AEEA}-[hArg][Nle]Q[hArg]P[dR][NMeL]SAKG[Oic][Phe(4-I)]P[dBip]-OH)

Same assay, conditions: read-out: EC50 Rat APJ Receptor

EC50 [nM]	SMILES
1.8	CC(=O)N[C@@H](CCCCNC(=N)N)C(=O)N[C@@H](CCCCNC(=N)N)C(=O)N[C@@H](CCC(N)=O)C(=O)N[C@@H](CCCCNC(=N)N)C(=O)N1[C@H](C(=O)N[C@H](CCCNC(=N)N)C(=O)N(C)[C@@H](CC(C)C)C(=O)N[C@@H](CO)C(=O)N[C@@H](Cc2c[nH]cn2)C(=O)N[C@@H](CCCCN)C(=O)NCC(=O)N2[C@H](C(=O)N[C@@H](Cc3ccc(I)cc3)C(=O)N3CCC[C@H]3C(=O)N[C@H](Cc3ccc(-c4ccccc4)cc3)C(=O)O)C[C@@H]3CCCC[C@@H]32)C[C@@H]2CCCC[C@@H]21 [compound 21] (Ac-[hArg][hArg]Q[hArg][Oic][dR][NMeL]SHKG[Oic][Phe(4-I)]P[dBip]-OH)
